Reference: ChEMBL document CHEMBL3769353, “Novel indole-based melatonin analogues: Evaluation of antioxidant activity and protective effect against amyloid β-induced damage” (Bioorg Med Chem, 2016)
The source made the active and inactive calls. The rule behind the calls is not given here.

Key:
[1] = tested on: Erythrocyte; assay: Antioxidant activity in human erythrocytes assessed as ROS induced DCFH-DA oxidation at 10 uM by fluorescence analysis in presence of 10 uM of H2O2; type: functional, cell-based
[2] = Antioxidant activity in rat PC12 cells assessed as inhibition of amyloid beta (25 to 35 amino acid residues) induced ROS generation at 50 uM preincubated overnight followed by addition of amyloid beta (25 to 35 amino acid residues) measured after 120 mins by DCFH-DA-based fluorescence assay; type: functional; conditions: PC-12
[3] = Cytotoxicity against CHOK1 cells assessed as LDH leakage at 10 uM by spectrophotometric analysis; type: cell-based, Cricetulus griseus; conditions: chinese hamster, cho-k1, 10 µM
[4] = tested on: PC-12; assay: Neuroprotective activity against amyloid beta (25 to 35 amino acid residues) induced damage in rat PC12 cells assessed as cell viability preincubated for 3 hrs followed by addition of amyloid beta (25 to 35 amino acid residues) for 24 hrs by MTT assay; type: functional, cell-based
[5] = tested on: Erythrocyte; assay: Antioxidant activity in human erythrocytes assessed as ROS induced DCFH-DA oxidation at 100 uM by fluorescence analysis in presence of 10 uM of H2O2; type: functional, cell-based
[6] = Cytotoxicity against rat PC12 cells at 100 uM; type: cell-based; conditions: pc-12, 100 µM

## Fc1ccc(-c2[nH]c3ccccc3c2/C=N/Nc2ccc(Cl)cc2)cc1
[1]
  Activity: Active
[2]
  inhibition at 50 µM: 49.7%
[3]
  Activity: Non-toxic
[4]
  IC50: 73.9 µM
[5]
  Activity: Active
[6]
  Activity: Non-toxic

## Fc1ccc(-c2[nH]c3ccccc3c2/C=N/Nc2ccc(Cl)c(Cl)c2)cc1
[1]
  Activity: Active
[2]
  inhibition at 50 µM: 71.2%
[3]
  Activity: Non-toxic
[4]
  IC50: 65.7 µM
[5]
  Activity: Active
[6]
  Activity: Non-toxic

## COc1ccc2[nH]cc(CCNC(C)=O)c2c1 [MELATONIN]
[2]
  inhibition at 50 µM: 49.9%
[4]
  IC50: > 100 µM
[6]
  Activity: Non-toxic

## Fc1ccc(-c2[nH]c3ccccc3c2/C=N/Nc2ccccc2F)cc1
[1]
  Activity: Active
[2]
  inhibition at 50 µM: 88.1%
[3]
  Activity: Non-toxic
[4]
  IC50: 64.1 µM
[5]
  Activity: Active
[6]
  Activity: Non-toxic

## Fc1ccc(-c2[nH]c3ccccc3c2/C=N/Nc2ccccc2Br)cc1
[1]
  Activity: Active
[2]
  inhibition at 50 µM: 95.5%
[3]
  Activity: Non-toxic
[4]
  IC50: 37 µM
[5]
  Activity: Active
[6]
  Activity: Non-toxic

## Fc1ccc(N/N=C/c2c(-c3ccc(F)cc3)[nH]c3ccccc23)cc1
[1]
  Activity: inactive
[2]
  inhibition at 50 µM: 74%
[3]
  Activity: Non-toxic
[4]
  IC50: > 100 µM
[6]
  Activity: Non-toxic

## Fc1ccc(-c2[nH]c3ccccc3c2/C=N/Nc2cccc(Cl)c2)cc1
[1]
  Activity: Active
[2]
  inhibition at 50 µM: 54.6%
[3]
  Activity: Non-toxic
[4]
  IC50: 44 µM
[5]
  Activity: Active
[6]
  Activity: Non-toxic

## Fc1ccc(-c2[nH]c3ccccc3c2/C=N/Nc2ccccc2Cl)cc1
[1]
  Activity: Active
[2]
  inhibition at 50 µM: 44.1%
[3]
  Activity: Non-toxic
[4]
  IC50: 38.3 µM
[5]
  Activity: Active
[6]
  Activity: Non-toxic

## Fc1ccc(-c2[nH]c3ccccc3c2/C=N/Nc2ccc(Cl)cc2Cl)cc1
[1]
  Activity: Active
[2]
  inhibition at 50 µM: 83.8%
[3]
  Activity: Non-toxic
[4]
  IC50: 51.5 µM
[5]
  Activity: Active
[6]
  Activity: Non-toxic

## Fc1ccc(-c2[nH]c3ccccc3c2/C=N/Nc2cccc(F)c2)cc1
[1]
  Activity: Active
[2]
  inhibition at 50 µM: 77.8%
[3]
  Activity: Non-toxic
[4]
  IC50: 54.4 µM
[5]
  Activity: Active
[6]
  Activity: Non-toxic

## Fc1ccc(-c2[nH]c3ccccc3c2/C=N/Nc2ccc(F)cc2F)cc1
[1]
  Activity: Active
[2]
  inhibition at 50 µM: 74.9%
[3]
  Activity: Non-toxic
[4]
  IC50: 50.4 µM
[5]
  Activity: Active
[6]
  Activity: Non-toxic

## Fc1ccc(-c2[nH]c3ccccc3c2/C=N/Nc2cccc(Br)c2)cc1
[1]
  Activity: Active
[3]
  Activity: Non-toxic
[5]
  Activity: Active
[6]
  Activity: Non-toxic

## Fc1ccc(-c2[nH]c3ccccc3c2/C=N/Nc2cc(Cl)ccc2Cl)cc1
[1]
  Activity: Active
[2]
  inhibition at 50 µM: 59.2%
[3]
  Activity: Non-toxic
[4]
  IC50: 39 µM
[5]
  Activity: Active
[6]
  Activity: Non-toxic

## Fc1ccc(-c2[nH]c3ccccc3c2/C=N/Nc2cc(F)cc(F)c2)cc1
[1]
  Activity: Active
[2]
  inhibition at 50 µM: 86.4%
[3]
  Activity: Non-toxic
[4]
  IC50: 34.3 µM
[5]
  Activity: Active
[6]
  Activity: Non-toxic

## COc1ccc(C(=O)N/N=C/c2c(-c3ccc(F)cc3)[nH]c3ccccc23)cc1
[1]
  Activity: inactive
[2]
  inhibition at 50 µM: 19.2%
[3]
  Activity: Non-toxic
[4]
  IC50: > 100 µM
[6]
  Activity: Non-toxic
